The record followed here is patent US10457677B2 (priority 2015, dated 2019).

Like-named read-outs stand apart in the source and are kept apart here.

For test [1], the target named is purified human recombinant ATM (ataxia telangiectasia mutated), full length (Homo sapiens (Human), UniProt Q13315). The test is described as follows: ATM kinase assay - determination of ATM inhibition (IC50 ATM), TR-FRET. The format is biochemical. The procedure, abridged:
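Full-length enzyme, expressed in a mammalian cell line, pre-incubated 15 min with inhibitor in 25 mM HEPES pH 8.0, 10 mM Mg(CH3COO)2, 1 mM MnCl2, 0,1% BSA, 0,01% Brij 35, 5 mM DTT. Full-length cmyc-p53 (Sf21-expressed) and ATP then added, 30-35 min at 22° C. EDTA stop; p53 S15 phosphorylation read by TR-FRET antibodies.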

Test [2] has as its system phosphorylation of CHK2 (phospho-Thr68) in HCT116 cells. The test is described as follows: Cellular pCHK2 assay: bleomycin-induced phosphorylation of CHK2 (phospho-Thr68), immunofluorescence high-content analysis. The format is cell-based, human. The conditions noted are these: Homo sapiens, HCT-116, 4 h, read-out: IC50 (pCHK2). The gist of the method:
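HCT116 cells in DMEM with 10% FCS, incubated overnight at 37° C, then given compounds (1 nM to 30 μM, 0.5% DMSO) together with 10 μM bleomycin. Phospho-Thr68 CHK2 immunostained and imaged by high-content imager; nuclei with pCHK2 above background counted, cell count from propidium iodide DNA stain.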

Another test concerns the target mTOR (human) (Homo sapiens (Human), UniProt P42345). Description: mTOR (human) kinase assay, [γ-33P-ATP] filter assay. The format is biochemical. The procedure, abridged: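 Radiometric filter assay: enzyme in 50 mM HEPES pH 7.5, 1 mM EGTA, 0.01% Tween 20, 3 mM MnCl2, 2 mg/ml substrate with [γ-33P-ATP], started with MgATP. Incubated 40 min at room temperature, stopped with 3% phosphoric acid; incorporation measured on P30 filtermat by scintillation counting.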

A further test deals with PI3K p110α/p85α (human) (Homo sapiens (Human), UniProt P42336). The test is described as follows: PI3K p110α/p85α (human), non-radioactive assay (HTRF). It is filed as biochemical. Particulars: read-out: IC50 (PI3Kalpha). (Time-resolved FRET reads energy transfer from a long-lived donor to a nearby acceptor.)
For the next test, the target named is PI3K p110β/p85α (human) (Homo sapiens (Human), UniProt P42338). The test is described as follows: PI3K p110β/p85α (human), non-radioactive assay (HTRF). It is filed as biochemical. The conditions noted are these: read-out: IC50 (PI3Kbeta). The procedure, abridged: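 Human p110β/p85α incubated with 10 μM phosphatidylinositol 4,5-bisphosphate and MgATP for 30 min at room temperature, stopped with EDTA plus biotinylated PIP3. HTRF detection used a Eu-anti-GST antibody, GST-GRP1 PH domain and streptavidin-APC, with signal taken as 10000×(Em665nm/Em620nm).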
PI3K p110β/p85α (human), sequence (P42338 whole entry, the tested form may be a part): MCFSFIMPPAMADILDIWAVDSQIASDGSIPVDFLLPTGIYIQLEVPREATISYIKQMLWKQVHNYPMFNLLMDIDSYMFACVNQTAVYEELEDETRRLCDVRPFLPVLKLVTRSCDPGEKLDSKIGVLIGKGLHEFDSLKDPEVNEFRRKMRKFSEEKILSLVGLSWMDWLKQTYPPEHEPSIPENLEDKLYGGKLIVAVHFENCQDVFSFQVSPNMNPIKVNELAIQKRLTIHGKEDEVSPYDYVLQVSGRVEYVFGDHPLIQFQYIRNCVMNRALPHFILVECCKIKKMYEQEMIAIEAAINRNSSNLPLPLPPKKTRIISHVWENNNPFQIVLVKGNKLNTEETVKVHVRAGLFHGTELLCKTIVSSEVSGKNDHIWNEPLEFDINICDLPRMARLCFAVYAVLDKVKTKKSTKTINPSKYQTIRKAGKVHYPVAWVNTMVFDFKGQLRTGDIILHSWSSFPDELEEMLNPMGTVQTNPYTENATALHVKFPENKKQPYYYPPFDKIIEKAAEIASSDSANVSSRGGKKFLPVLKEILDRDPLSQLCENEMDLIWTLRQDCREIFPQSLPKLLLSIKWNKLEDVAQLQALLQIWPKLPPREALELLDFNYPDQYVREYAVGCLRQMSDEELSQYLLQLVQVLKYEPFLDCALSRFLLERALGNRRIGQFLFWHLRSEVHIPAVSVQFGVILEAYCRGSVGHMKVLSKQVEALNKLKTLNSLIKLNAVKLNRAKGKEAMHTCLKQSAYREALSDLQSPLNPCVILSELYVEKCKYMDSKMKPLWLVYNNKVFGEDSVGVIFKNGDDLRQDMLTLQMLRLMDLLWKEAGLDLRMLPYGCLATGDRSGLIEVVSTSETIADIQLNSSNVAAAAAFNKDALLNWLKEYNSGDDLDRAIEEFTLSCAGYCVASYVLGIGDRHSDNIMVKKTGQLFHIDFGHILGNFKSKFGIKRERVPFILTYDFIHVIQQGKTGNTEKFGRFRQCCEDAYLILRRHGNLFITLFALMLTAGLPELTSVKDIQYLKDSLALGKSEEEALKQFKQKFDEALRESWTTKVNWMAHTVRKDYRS
PI3K p110β/p85α (human), sequence (P27986 whole entry partner, the tested form may be a part): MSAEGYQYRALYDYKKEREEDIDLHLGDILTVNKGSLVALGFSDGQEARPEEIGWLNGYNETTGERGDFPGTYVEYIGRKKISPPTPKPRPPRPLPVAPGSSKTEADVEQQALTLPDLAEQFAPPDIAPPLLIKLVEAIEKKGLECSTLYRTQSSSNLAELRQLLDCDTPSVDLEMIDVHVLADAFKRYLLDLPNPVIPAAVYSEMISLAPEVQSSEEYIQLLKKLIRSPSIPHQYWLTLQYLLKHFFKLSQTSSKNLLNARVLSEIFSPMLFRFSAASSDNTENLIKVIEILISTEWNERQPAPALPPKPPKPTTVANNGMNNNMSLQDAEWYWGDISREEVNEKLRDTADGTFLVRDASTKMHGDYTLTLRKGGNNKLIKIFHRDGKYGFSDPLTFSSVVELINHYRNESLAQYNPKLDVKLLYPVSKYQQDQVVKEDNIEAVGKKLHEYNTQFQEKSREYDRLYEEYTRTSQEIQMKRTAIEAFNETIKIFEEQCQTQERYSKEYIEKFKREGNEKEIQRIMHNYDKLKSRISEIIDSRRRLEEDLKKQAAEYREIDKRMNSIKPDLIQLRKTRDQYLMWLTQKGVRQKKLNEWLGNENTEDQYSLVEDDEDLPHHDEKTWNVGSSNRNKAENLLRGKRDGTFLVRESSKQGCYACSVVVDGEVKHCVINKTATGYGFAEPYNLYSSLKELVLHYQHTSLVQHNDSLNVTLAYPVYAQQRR

The next test addresses PI3K p110δ/p85α (human) (Homo sapiens (Human), UniProt O00329). The test is described as follows: PI3K p110δ/p85α (human), non-radioactive assay (HTRF). The format is biochemical. Particulars: read-out: IC50 (PI3Kdelta).
A further test concerns the target PI3K (p120γ) (human) (Homo sapiens (Human), UniProt P48736). Description: PI3K (p120γ) (human), non-radioactive assay (HTRF). It is filed as biochemical. The conditions noted are these: read-out: IC50 (PI3Kgamma). The gist of the method:
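Enzyme was run with 10 μM phosphatidylinositol 4,5-bisphosphate, starting the reaction with MgATP at an unspecified level, for 30 min at room temperature. The stop used EDTA plus biotinylated PIP3, and detection used Eu-anti-GST, GST-GRP1 PH domain and streptavidin-APC. Signal was taken as HTRF = 10000×(Em665nm/Em620nm).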

purified human recombinant ATM (ataxia telangiectasia mutated), full length, sequence (Q13315 whole entry, change not shown): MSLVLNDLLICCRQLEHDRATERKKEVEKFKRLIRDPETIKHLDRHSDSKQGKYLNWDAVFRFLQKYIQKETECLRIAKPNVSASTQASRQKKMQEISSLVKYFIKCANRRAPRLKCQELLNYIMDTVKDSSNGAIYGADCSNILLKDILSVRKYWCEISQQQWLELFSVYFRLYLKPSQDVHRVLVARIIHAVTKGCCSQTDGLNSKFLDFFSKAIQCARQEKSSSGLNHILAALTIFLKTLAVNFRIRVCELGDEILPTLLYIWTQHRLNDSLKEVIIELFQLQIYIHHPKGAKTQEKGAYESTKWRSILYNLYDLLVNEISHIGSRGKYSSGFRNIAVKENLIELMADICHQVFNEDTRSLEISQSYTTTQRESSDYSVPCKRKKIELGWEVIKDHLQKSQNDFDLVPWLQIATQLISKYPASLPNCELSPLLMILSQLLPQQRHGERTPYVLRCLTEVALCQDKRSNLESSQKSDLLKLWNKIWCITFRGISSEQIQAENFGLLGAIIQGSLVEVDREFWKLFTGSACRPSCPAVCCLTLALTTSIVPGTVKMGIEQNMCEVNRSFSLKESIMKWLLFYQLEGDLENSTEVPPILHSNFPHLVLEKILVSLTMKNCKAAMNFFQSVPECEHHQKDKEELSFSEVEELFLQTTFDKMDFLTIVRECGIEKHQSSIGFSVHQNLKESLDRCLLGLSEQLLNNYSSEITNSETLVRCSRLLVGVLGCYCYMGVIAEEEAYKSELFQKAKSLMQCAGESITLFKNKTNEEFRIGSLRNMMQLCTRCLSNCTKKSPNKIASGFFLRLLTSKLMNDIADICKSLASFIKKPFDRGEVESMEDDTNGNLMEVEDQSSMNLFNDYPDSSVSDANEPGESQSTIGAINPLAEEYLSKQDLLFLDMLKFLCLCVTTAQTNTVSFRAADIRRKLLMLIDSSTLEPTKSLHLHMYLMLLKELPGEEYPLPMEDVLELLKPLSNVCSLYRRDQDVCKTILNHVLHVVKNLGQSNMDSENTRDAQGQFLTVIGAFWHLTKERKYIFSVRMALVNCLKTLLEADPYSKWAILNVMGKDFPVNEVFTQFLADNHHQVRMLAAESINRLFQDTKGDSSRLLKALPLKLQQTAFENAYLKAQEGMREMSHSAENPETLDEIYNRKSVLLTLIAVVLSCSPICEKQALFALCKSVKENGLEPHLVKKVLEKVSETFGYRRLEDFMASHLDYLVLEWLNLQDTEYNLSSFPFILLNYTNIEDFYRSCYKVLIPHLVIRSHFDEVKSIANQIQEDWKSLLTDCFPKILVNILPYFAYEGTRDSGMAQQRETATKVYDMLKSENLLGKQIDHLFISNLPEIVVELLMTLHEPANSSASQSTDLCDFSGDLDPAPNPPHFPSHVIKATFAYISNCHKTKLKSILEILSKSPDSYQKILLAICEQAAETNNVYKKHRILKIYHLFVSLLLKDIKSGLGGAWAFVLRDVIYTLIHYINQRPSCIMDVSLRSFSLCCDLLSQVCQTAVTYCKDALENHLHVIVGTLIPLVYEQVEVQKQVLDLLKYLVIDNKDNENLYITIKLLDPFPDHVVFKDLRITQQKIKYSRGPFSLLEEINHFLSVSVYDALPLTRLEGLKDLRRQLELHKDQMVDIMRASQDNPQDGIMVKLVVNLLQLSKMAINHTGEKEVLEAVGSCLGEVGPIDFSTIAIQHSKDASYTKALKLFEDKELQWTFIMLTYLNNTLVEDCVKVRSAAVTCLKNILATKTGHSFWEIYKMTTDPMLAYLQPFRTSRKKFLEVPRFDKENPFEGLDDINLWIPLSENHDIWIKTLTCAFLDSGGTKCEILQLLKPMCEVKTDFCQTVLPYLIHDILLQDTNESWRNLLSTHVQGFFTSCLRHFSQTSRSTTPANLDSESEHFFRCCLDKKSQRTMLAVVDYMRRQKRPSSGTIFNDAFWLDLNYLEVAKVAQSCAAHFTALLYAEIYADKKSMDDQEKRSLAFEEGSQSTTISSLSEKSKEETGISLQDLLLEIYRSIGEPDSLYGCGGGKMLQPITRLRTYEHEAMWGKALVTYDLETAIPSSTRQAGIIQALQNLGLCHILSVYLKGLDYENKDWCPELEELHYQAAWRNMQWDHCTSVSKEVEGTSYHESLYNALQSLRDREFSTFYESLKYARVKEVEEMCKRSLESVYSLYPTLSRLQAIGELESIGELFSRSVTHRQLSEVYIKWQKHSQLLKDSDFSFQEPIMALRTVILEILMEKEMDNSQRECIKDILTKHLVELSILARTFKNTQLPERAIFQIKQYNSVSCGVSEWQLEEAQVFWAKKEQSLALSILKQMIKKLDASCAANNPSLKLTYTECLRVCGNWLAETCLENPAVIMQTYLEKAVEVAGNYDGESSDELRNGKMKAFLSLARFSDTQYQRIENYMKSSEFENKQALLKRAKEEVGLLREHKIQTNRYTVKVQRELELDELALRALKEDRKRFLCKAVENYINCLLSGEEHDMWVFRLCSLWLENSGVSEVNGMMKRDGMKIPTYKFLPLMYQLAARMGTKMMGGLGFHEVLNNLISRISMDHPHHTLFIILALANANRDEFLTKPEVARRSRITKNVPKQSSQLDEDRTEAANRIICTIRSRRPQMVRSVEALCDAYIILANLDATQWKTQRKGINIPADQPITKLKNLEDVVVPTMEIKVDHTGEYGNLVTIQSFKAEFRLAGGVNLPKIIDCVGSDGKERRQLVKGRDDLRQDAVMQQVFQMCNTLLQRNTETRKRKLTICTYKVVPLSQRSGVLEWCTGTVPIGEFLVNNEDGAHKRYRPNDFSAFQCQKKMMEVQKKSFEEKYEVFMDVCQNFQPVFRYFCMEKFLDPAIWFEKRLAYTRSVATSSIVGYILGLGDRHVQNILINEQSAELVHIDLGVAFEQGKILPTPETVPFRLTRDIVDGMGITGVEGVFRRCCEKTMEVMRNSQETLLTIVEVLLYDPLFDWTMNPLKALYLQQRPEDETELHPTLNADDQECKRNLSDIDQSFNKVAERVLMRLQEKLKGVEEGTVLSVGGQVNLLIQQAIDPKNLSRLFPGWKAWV

Regarding `COc1cc2ncc3c(c2cc1-c1cn[nH]c1)n(-c1ccnn1C)c(=O)n3C` [Compound Example 41, 7-Methoxy-3-methyl-1-(2-methyl-2H-pyrazol-3-yl)-8-(1H-pyrazol-4-yl)-1,3-dihydroimidazo[4,5-c] quinolin-2-one], the IC50 in test [1] is below 0.01 µM; in test [1] (10 μM ATP, substrate p53) it was below 0.01 µM; in test [2], 0.2 to 1 µM; against mTOR (human), above 10 µM; on PI3K p110α/p85α (human), above 30 µM; at PI3K p110β/p85α (human), above 30 µM. Moreover, the IC50 on PI3K p110δ/p85α (human) and on PI3K (p120γ) (human) was above 30 µM in each case.
